Active and inactive are the calls of the source. No cut-off for these calls is given here.
Tests used:
Homo sapiens = species: Homo sapiens; assay: Selectivity index, ratio of IC50 for human recombinant HDAC1 to IC50 for human recombinant HDAC6
B16 [1] = assay: Growth inhibition of mouse B16 cells incubated for 48 hrs by MTT assay; type: functional; conditions: for GI50: B16, 48 h
[2] = biological target: T1, Protein deacetylase HDAC6 (Mus musculus) (UniProt Q9Z2V5); assay: Inhibition of HDAC6 in mouse B16 cells assessed as increase in acetyl alpha-tubulin level incubated for 24 hrs by Western blotting; type: cell-based
T1 sequence (whole entry): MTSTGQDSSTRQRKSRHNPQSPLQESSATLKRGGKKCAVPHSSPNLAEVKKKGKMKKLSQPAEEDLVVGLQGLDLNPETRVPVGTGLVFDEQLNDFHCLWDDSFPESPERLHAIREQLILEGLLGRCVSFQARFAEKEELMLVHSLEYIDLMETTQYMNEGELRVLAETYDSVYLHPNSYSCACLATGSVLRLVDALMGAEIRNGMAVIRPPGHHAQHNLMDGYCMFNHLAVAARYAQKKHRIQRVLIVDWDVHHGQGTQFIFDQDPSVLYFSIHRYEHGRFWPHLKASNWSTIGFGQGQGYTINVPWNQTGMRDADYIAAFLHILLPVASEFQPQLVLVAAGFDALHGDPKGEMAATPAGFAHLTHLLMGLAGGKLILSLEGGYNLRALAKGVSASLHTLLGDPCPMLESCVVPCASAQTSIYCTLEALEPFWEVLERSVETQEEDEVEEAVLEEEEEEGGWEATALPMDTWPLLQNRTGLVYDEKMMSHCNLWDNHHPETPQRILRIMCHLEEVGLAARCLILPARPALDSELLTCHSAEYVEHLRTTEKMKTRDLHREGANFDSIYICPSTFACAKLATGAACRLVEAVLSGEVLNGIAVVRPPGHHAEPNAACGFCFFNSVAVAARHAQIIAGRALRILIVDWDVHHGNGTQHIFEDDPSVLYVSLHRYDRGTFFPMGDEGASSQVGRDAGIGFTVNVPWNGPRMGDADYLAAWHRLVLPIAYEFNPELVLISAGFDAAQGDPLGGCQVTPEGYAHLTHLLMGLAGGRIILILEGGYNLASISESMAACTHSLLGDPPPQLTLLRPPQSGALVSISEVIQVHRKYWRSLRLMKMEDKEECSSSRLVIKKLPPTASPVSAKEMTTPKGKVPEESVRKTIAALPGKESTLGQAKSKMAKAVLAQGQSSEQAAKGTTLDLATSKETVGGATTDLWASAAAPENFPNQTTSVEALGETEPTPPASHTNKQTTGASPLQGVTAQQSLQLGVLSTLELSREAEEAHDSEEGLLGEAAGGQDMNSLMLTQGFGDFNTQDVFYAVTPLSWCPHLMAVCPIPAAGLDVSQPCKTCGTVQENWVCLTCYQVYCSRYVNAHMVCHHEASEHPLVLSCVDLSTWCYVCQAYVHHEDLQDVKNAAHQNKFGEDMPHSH

B16 [3] = assay: Inhibition of Class 1 histone deacetylase in mouse B16 cells assessed as increase in histone H3 acetylation at 10 uM incubated for 24 hrs by Western blotting; type: cell-based
B16 [4] = assay: Inhibition of Class 1 histone deacetylase in mouse B16 cells assessed as increase in histone H3 acetylation at 1 to 100 nM incubated for 24 hrs by Western blotting; type: cell-based
B16 [5] = assay: Inhibition of Class 1 histone deacetylase in mouse B16 cells assessed as increase in histone H3 acetylation at 1 uM incubated for 24 hrs by Western blotting; type: cell-based

| inhibition [2] | Compound | Ratio IC50 (Homo sapiens) | growth inhibition (GI) (B16 [1]) | GI50 (B16 [1]) [µM] | inhibition (B16 [3]) | inhibition (B16 [4]) | inhibition (B16 [5]) |
| --- | --- | --- | --- | --- | --- | --- | --- |
|  | CCN(C(=O)NCc1ccc(C(=O)NO)cc1)c1ccccc1 | 330 | Dose-dependent effect | > 100 |  |  |  |
|  | COCCCN(C(=O)NCc1ccc(C(=O)NO)cc1)c1ccccc1 | 226 | Dose-dependent effect | > 100 |  |  |  |
|  | COc1ccccc1NC(=O)N(CCc1c[nH]c2ccccc12)Cc1ccc(C(=O)NO)cc1 | 19 | Dose-dependent effect | 30.4 |  |  |  |
|  | COc1ccccc1NC(=O)N(CCCN(C)C)Cc1ccc(C(=O)NO)cc1 | 6 | Dose-dependent effect | 75.3 |  |  |  |
|  | O=C(NO)c1ccc(CN(CCc2ccccc2)C(=O)Nc2ccccc2)cc1 | 222 | Dose-dependent effect | 15.4 |  |  |  |
|  | COc1ccccc1NC(=O)N(CCc1ccc(O)cc1)Cc1ccc(C(=O)NO)cc1 | 292 | Dose-dependent effect | 18.4 |  |  |  |
|  | CCCCN(C(=O)NCc1ccc(C(=O)NO)cc1)c1ccccc1 | 322 | Dose-dependent effect | 65.8 |  |  |  |
|  | CN1CCc2c(c3ccccc3n2Cc2ccc(C(=O)NO)cc2)C1 [TUBASTATIN A] |  | Dose-dependent effect | 40.5 |  |  |  |
|  | COCCCN(Cc1ccc(C(=O)NO)cc1)C(=O)Nc1ccccc1 | 443 | Dose-dependent effect | 22.2 |  |  |  |
|  | COCCN(Cc1ccc(C(=O)NO)cc1)C(=O)Nc1ccccc1 | 243 | Dose-dependent effect |  |  |  |  |
|  | COc1ccccc1NC(=O)N(CCCO)Cc1ccc(C(=O)NO)cc1 | 803 | Dose-dependent effect | > 100 |  |  |  |
| Dose-dependent effect | CCCCN(Cc1ccc(C(=O)NO)cc1)C(=O)Nc1ccccc1 |  | Dose-dependent effect |  | Active | inactive | Active |
|  | Cc1[nH]c2ccccc2c1CCNCc1ccc(/C=C/C(=O)NO)cc1 [PANOBINOSTAT] |  | Dose-dependent effect | 0.15 |  |  |  |
|  | COc1ccccc1NC(=O)NCc1ccc(C(=O)NO)cc1 | 2 |  |  |  |  |  |

— ChEMBL document CHEMBL2176914, “Selective histone deacetylase 6 inhibitors bearing substituted urea linkers inhibit melanoma cell growth” (J Med Chem, 2012)
